In patent publication US9266939B2, “Compositions comprising natriuretic peptides and methods of use thereof” (Alexion Pharmaceuticals, Inc., priority 2010, dated 2016):
pEC50: −log10 of the molar value. Where “and” joins values, the source holds several entries; their conditions need not be identical. Identical values can stand only once. Bridge positions count the residues as written; N and C are the ends. Ends that are not written are not given here. Peptide text beside a SMILES is read from it.

Assays:
NPR-B [1] = target: T1, NPR-B (Homo sapiens, UniProt P20594); assay: Membrane guanylyl cyclase (cGMP) assay, NPR-B; type: biochemical
T1 sequence (P20594 23-1047): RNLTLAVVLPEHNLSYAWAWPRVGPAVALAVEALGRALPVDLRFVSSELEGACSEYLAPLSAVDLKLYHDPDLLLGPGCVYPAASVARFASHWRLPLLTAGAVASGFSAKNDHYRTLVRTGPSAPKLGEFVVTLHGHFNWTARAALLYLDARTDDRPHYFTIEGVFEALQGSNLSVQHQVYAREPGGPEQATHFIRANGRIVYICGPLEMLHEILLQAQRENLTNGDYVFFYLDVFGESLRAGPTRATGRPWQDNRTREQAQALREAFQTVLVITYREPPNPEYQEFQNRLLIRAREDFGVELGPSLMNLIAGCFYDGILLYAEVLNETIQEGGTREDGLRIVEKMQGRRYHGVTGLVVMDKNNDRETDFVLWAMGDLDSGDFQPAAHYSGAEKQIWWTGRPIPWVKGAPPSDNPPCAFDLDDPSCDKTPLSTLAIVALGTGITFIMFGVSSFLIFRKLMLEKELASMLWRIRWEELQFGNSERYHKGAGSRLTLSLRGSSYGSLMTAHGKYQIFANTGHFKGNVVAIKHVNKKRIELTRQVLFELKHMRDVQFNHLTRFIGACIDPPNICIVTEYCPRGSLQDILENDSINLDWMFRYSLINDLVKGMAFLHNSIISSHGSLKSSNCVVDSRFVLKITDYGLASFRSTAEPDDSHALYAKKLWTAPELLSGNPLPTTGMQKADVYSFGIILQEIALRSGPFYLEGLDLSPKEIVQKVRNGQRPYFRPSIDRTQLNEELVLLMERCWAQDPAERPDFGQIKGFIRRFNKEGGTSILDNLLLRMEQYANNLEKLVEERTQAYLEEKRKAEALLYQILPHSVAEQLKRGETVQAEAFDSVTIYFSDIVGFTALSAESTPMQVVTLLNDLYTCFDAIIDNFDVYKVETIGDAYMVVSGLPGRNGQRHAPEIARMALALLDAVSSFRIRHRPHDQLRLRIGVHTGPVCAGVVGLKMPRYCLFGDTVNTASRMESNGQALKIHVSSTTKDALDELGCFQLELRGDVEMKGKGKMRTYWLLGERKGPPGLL

NPR-A = NPR-A (Homo sapiens, UniProt P16066); type: biochemical
Sequence of NPR-A (P16066 33-1061): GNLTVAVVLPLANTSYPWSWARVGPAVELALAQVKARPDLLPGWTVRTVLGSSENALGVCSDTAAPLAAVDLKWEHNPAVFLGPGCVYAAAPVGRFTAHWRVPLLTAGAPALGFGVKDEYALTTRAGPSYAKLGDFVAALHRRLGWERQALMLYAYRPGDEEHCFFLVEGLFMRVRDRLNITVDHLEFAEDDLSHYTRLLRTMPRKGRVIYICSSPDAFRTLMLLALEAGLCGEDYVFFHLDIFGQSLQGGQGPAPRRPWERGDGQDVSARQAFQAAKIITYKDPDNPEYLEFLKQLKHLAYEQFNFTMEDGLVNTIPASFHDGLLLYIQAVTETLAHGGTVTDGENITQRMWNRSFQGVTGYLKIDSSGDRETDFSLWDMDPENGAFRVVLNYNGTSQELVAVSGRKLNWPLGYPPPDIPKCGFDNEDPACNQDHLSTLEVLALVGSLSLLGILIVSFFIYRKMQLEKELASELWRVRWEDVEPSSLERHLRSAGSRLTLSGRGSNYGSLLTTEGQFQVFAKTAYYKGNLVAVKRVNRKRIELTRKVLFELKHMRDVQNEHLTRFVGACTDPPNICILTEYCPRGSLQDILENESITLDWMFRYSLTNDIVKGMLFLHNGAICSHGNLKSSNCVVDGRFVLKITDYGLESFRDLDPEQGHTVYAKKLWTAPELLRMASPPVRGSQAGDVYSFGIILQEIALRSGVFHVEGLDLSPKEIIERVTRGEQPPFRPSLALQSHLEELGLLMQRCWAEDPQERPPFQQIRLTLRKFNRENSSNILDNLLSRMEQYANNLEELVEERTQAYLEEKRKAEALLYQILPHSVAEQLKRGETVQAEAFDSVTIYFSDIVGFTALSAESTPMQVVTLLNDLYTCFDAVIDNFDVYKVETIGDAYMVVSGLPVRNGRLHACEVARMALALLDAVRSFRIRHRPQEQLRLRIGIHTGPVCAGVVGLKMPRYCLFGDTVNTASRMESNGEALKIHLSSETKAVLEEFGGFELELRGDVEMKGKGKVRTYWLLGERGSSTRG

[2] = target: T2, neutral endopeptidase (NEP) (Homo sapiens, UniProt P08473)
T2 sequence (P08473 whole entry): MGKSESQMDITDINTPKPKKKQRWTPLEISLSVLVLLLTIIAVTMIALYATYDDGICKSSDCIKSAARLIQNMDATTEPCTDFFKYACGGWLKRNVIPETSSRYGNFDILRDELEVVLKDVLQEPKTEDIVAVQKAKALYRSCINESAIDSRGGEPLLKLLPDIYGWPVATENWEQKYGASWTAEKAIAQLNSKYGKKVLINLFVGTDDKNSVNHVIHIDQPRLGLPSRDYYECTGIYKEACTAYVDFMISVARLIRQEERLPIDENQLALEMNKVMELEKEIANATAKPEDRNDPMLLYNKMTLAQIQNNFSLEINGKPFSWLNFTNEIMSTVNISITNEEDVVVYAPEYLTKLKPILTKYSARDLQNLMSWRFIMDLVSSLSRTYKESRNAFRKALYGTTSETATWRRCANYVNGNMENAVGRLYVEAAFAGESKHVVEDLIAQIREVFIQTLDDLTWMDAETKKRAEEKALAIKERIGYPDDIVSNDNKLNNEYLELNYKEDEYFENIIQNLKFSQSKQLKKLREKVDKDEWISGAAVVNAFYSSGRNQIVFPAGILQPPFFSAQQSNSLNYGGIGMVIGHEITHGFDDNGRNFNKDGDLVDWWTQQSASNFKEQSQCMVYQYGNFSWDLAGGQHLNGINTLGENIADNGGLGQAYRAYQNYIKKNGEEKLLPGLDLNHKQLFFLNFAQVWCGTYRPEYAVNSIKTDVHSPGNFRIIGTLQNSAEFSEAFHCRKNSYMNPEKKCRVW

[3] = target: T2, neutral endopeptidase (NEP); assay: in vitro; conditions: isolated enzyme neprilysin, pH 7.5
NPR-B [4] = target: T1, NPR-B; assay: Whole cell guanylyl cyclase (cGMP) assay, NPR-B; type: cell-based; set-up: expressed in transfected cells; conditions: for pEC50: EC50; for Emax: read-out: % Efficacy
Protocol: HEK293S cells in a semi-confluent 75 cm2 flask are transfected with 30 μg of plasmid DNA coding for the appropriate receptor, e.g., human NPR-B or NPR-A, using Lipofectamine-2000CD. Alternatively, a stable polyclonal HEK293 S cell line expressing either human NPR-B or NPR-A was used. 24 hours after transfection, cells are trypsinized and plated into 48-well plates at 1×10^5 cells/well. Guanylyl cyclase assay is carried out 24 hours post-plating. Cells are first incubated for 30 minutes at 37° C. with serum-free DMEM medium. Then, they are incubated in triplicate with or without increasing concentrations of reference or test proteins in serum-free DMEM supplemented with 1 mM IBMX and 0.5% BSA, at 37° C. for 30 minutes to one hour. CNP serves as a suitable reference for NPR-B, while ANP is a suitable reference for NPR-A. Finally, cells are washed with ice-cold PBS and solubilized in lysis buffer from Catchpoint cGMP kit (Molecular devices). Concentrations of cGMP in lysate are determined using the Catchpoint cGMP kit. Dose-response curves are analysed with GraphPad Prism 5 software using non-linear regression with four-parameter logistic equation.

CC[C@H](C)[C@@H]1NC(=O)[C@H](CCCNC(=N)N)NC(=O)[C@H](CC(=O)O)NC(=O)[C@H](CC(C)C)NC(=O)[C@H](CCCCN)NC(=O)[C@H](CC(C)C)NC(=O)CNC(=O)[C@H](Cc2ccccc2)NC(=O)[C@@H](NC(=O)CNC(=O)[C@H](CCCCN)NC(=O)[C@H](CO)NC(=O)[C@H](CC(C)C)NC(=O)CN)CSSC[C@@H](C(=O)N2CCC[C@H]2C(=O)N[C@@H](CO)C(=O)N[C@@H](CO)C(=O)N[C@@H](C)C(=O)N[C@@H](C)C(=O)N2CCC[C@H]2C(=O)N[C@@H](CCCNC(=N)N)C(=O)N2CCC[C@H]2C(=O)N[C@@H](CC(N)=O)C(=O)N[C@@H](C)C(=O)N2CCC[C@H]2C(=O)N[C@@H](CO)C(=O)N[C@H](C(=O)N[C@@H](CO)C(=O)N[C@@H](C)C(=O)O)[C@@H](C)O)NC(=O)CNC(=O)[C@H](CC(C)C)NC(=O)CNC(=O)[C@H](CO)NC(=O)[C@H](CCSC)NC(=O)[C@H](CO)NC(=O)CNC1=O [CDNP-SAA] (HELM PEPTIDE1{G.L.S.K.G.C.F.G.L.K.L.D.R.I.G.S.M.S.G.L.G.C.P.S.S.A.A.P.R.P.N.A.P.S.T.S.A}$PEPTIDE1,PEPTIDE1,6:R3-22:R3$$$V2.0)
Approximate fold gain in selectivity versus CDNP (NPR-B [1]): 15 fold and 14.9 fold
Approximate fold selectivity NPR-B versus NPR-A (NPR-B [1]): 43.5 fold
NPR-B selective efficacy gain (NPR-B [1]): 69%
% efficacy versus CDNP on NPR-A (NPR-A): 34-69%
% loss in efficacy versus CDNP (NPR-A): 69%
sensitivity to NEP degradation [2]: slightly more sensitive to NEP than CDNP

CC[C@H](C)[C@@H]1NC(=O)[C@H](CCCNC(=N)N)NC(=O)[C@H](CC(=O)O)NC(=O)[C@H](CC(C)C)NC(=O)[C@H](CCCCN)NC(=O)[C@H](CC(C)C)NC(=O)CNC(=O)[C@H](Cc2ccccc2)NC(=O)[C@@H](NC(=O)CNC(=O)[C@H](CCCCN)NC(=O)[C@H](CO)NC(=O)[C@H](CC(C)C)NC(=O)CN)CSSC[C@@H](C(=O)N2CCC[C@H]2C(=O)N[C@@H](CO)C(=O)N[C@@H](CO)C(=O)N[C@@H](C)C(=O)N[C@@H](CC(=O)O)C(=O)N2CCC[C@H]2C(=O)N[C@@H](CCCNC(=N)N)C(=O)N2CCC[C@H]2C(=O)N[C@@H](CC(N)=O)C(=O)N[C@@H](C)C(=O)N2CCC[C@H]2C(=O)N[C@@H](CO)C(=O)N[C@H](C(=O)N[C@@H](CO)C(=O)N[C@@H](C)C(=O)O)[C@@H](C)O)NC(=O)CNC(=O)[C@H](CC(C)C)NC(=O)CNC(=O)[C@H](CO)NC(=O)[C@H](CCSC)NC(=O)[C@H](CO)NC(=O)CNC1=O [CDNP-SAD] (HELM PEPTIDE1{G.L.S.K.G.C.F.G.L.K.L.D.R.I.G.S.M.S.G.L.G.C.P.S.S.A.D.P.R.P.N.A.P.S.T.S.A}$PEPTIDE1,PEPTIDE1,6:R3-22:R3$$$V2.0)
Approximate fold gain in selectivity versus CDNP (NPR-B [1]): 28 fold and 28.5 fold
Approximate fold selectivity NPR-B versus NPR-A (NPR-B [1]): 83.2 fold
NPR-B selective efficacy gain (NPR-B [1]): 27%
% loss in efficacy versus CDNP (NPR-A): 27%
sensitivity to NEP degradation [2]: comparable NEP sensitivity

EEEEEESGGGGSGGGKGANKQGLSKGCFGLKLDRIGSMSGLGC (disulfide 27-43) [C6(E6) [BC6]]
Resist NEP degradation (No/Yes) [2]: Yes
remaining at 4 h [3]: 98%
EC50 Ratio versus CNP22 (NPR-B [4]): 45.7
Rescue Ratio Average (NPR-B [4]): 63
Rescue Ratio versus CNP22 (NPR-B [4]): 55-70
Rescue range (NPR-B [4]): 132 to 973 nM
pEC50 (NPR-B [4]): 6.17
Emax (NPR-B [4]): 88%

EEEEEESGGGGSGGGKGANQKGLSKGCFGLKLDRIGSMSGLGC (disulfide 27-43) [C7(E6) [BC7]]
Resist NEP degradation (No/Yes) [2]: Yes
remaining at 4 h [3]: 98%
EC50 Ratio versus CNP22 (NPR-B [4]): 68.6
Rescue Ratio Average (NPR-B [4]): 80
Rescue Ratio versus CNP22 (NPR-B [4]): 74-85
Rescue range (NPR-B [4]): 177 to 1193 nM
pEC50 (NPR-B [4]): 6.00
Emax (NPR-B [4]): 95%

EEEEEESGGGGSGGGKGANQQGLSKGCFGLKLDRIGSMSGLGC (disulfide 27-43) [C9(E6) [BC9]]
Resist NEP degradation (No/Yes) [2]: Yes
remaining at 4 h [3]: 98%
EC50 Ratio versus CNP22 (NPR-B [4]): 79.3
Rescue Ratio Average (NPR-B [4]): 87
Rescue Ratio versus CNP22 (NPR-B [4]): 76-97
Rescue range (NPR-B [4]): 183 to 1358 nM
pEC50 (NPR-B [4]): 5.93
Emax (NPR-B [4]): 95%

EEEEEESGGGGSGGGQGANKKGLSKGCFGLKLDRIGSMSGLGC (disulfide 27-43) [C8(E6) [BC8]]
Resist NEP degradation (No/Yes) [2]: Yes
remaining at 4 h [3]: 103%
EC50 Ratio versus CNP22 (NPR-B [4]): 48.9
Rescue Ratio Average (NPR-B [4]): 52
Rescue Ratio versus CNP22 (NPR-B [4]): 48-56
Rescue range (NPR-B [4]): 116 to 779 nM
pEC50 (NPR-B [4]): 6.14
Emax (NPR-B [4]): 97%

EEEEEESGGGGSGGGQGANKQGLSKGCFGLKLDRIGSMSGLGC (disulfide 27-43) [C11(E6) [BC11]]
Resist NEP degradation (No/Yes) [2]: Yes
remaining at 4 h [3]: 102%
EC50 Ratio versus CNP22 (NPR-B [4]): 60.4
Rescue Ratio Average (NPR-B [4]): 120
Rescue range (NPR-B [4]): 289 to 1662 nM
pEC50 (NPR-B [4]): 6.05
Emax (NPR-B [4]): 95%

EEEEEESGGGGSGGGQGANQKGLSKGCFGLKLDRIGSMSGLGC (disulfide 27-43) [C10(E6) [BC10]]
Resist NEP degradation (No/Yes) [2]: Yes
remaining at 4 h [3]: 102%
EC50 Ratio versus CNP22 (NPR-B [4]): 168
Rescue Ratio Average (NPR-B [4]): 90
Rescue Ratio versus CNP22 (NPR-B [4]): 89-90
Rescue range (NPR-B [4]): 213 to 1253 nM
pEC50 (NPR-B [4]): 5.61
Emax (NPR-B [4]): 156%

EEEEEESGGGGSGGGQGANQQGLSKGCFGLKLDRIGSMSGLGC (disulfide 27-43) [C5(E6) [BC5]]
Resist NEP degradation (No/Yes) [2]: Yes
remaining at 4 h [3]: 100%
EC50 Ratio versus CNP22 (NPR-B [4]): 161
Rescue Ratio Average (NPR-B [4]): 138
Rescue range (NPR-B [4]): 334 to 1899 nM
pEC50 (NPR-B [4]): 5.63
Emax (NPR-B [4]): 96%

GLSKGCFGLKLDRIGSMSGLGCGGGGSGGGGSGGGGDDDDDD (disulfide 6-22) [CNP-14AAlinker-D6 [C4]]
% of control after 240 min [2]: 75%
Resist NEP degradation (No/Yes) [2]: Yes
remaining at 4 h [3]: 75%
EC50 Ratio versus CNP22 (NPR-B [4]): 146
Rescue Ratio Average (NPR-B [4]): 545
Rescue Ratio versus CNP22 (NPR-B [4]): 375-714
Rescue range (NPR-B [4]): 900 to 10000 nM
pEC50 (NPR-B [4]): 5.67
Emax (NPR-B [4]): 156%
